Tests used:
TLR8 = TLR8 (Homo sapiens (Human), UniProt Q9NR97); test: TLR8 human peripheral blood mononuclear cell (PBMC) cell-based assay (Compound A as agonist; TNFα and IL12p40 readout); details: human PBMCs, TLR8 agonist Compound A at 800 nM, 6 hours, antagonist potency; read-out: TLR-8 EC50
TLR7 = TLR7 (Homo sapiens (Human), UniProt Q9NYK1); test: TLR7 human peripheral blood mononuclear cell (PBMC) cell-based assay (GS-986 as agonist; IL-6 and IFNα readout); details: human PBMCs, TLR7 agonist GS-986 at 400 nM, 6 hours, antagonist potency; read-out: TLR-7 EC50
Summary of the method: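 Human PBMCs (100,000 cells/well) preincubated 1 h at 37 °C with antagonist in 10-point dose response, then stimulated with TLR7 agonist for a further 6 h at 37 °C, 5% CO2. Supernatant IL-6 and IFNα measured by electrochemiluminescence immunoassay.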

TLR8, sequence (Q9NR97 27-1041): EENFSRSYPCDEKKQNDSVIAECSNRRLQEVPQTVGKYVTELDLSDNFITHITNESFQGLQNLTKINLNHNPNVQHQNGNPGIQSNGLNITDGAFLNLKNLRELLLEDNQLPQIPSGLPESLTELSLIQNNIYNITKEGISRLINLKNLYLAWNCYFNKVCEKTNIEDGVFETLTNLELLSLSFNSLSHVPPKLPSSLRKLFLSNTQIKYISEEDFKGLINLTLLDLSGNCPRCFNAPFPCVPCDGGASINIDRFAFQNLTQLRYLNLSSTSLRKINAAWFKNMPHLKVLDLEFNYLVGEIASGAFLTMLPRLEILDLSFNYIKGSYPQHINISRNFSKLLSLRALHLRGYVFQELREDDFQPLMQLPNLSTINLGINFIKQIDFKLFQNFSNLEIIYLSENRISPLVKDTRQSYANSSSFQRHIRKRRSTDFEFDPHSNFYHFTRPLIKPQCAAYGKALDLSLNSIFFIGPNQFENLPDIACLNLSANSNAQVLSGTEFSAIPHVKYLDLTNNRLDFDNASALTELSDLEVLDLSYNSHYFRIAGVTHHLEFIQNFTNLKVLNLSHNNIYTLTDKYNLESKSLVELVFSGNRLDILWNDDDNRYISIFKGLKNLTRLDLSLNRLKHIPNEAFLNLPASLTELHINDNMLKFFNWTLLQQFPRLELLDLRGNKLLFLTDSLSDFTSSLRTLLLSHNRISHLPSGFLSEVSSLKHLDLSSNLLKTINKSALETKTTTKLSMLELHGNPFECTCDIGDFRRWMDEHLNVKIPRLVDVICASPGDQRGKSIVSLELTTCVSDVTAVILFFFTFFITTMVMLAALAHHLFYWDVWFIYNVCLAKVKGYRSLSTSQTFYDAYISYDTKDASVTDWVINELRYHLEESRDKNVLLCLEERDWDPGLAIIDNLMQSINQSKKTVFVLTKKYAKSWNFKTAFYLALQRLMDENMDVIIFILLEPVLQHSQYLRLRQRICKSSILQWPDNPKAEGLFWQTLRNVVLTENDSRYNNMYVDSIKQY
TLR7, sequence (Q9NYK1 27-1049): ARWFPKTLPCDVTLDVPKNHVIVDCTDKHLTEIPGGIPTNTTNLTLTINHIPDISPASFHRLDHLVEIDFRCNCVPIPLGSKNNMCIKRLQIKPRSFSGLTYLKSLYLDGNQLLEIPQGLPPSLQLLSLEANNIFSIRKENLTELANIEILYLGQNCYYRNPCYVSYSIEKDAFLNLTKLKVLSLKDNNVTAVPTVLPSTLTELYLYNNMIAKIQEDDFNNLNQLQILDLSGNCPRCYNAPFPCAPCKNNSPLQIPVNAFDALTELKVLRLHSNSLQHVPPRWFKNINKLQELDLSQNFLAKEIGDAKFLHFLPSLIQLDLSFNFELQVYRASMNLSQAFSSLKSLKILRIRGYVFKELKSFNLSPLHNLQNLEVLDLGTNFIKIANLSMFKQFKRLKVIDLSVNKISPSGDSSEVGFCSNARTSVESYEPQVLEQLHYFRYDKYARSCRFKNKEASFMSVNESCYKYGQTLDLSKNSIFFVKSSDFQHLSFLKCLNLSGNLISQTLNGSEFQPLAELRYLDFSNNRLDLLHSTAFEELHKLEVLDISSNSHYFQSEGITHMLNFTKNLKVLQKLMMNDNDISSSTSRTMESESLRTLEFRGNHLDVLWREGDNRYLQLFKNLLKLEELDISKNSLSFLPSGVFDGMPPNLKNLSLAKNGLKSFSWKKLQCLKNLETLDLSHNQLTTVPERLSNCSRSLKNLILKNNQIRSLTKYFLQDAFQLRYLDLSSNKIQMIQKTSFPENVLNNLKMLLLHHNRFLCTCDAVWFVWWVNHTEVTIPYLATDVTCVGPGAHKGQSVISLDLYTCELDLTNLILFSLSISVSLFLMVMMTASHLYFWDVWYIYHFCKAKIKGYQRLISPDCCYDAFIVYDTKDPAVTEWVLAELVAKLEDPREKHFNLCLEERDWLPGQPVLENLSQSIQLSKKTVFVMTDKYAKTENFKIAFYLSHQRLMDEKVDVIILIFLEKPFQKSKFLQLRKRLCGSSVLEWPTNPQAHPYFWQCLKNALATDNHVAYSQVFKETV

In the case of `Cc1c(C2CCN(CC(N)=O)CC2)sc2[nH]c(-c3ccc(C#N)c4ncccc34)c(C(C)C)c12` [Example 230], the EC50 (TLR8) is reported as 14 nM and the EC50 (TLR7) is reported as 0.81 nM.

For `Cc1c(C2CCN(CC(N)=O)CC2)sc2[nH]c(C3=NC(C)c4ncccc43)c(C(C)C)c12` (centres unmarked) [Example 232], the EC50 (TLR8) was 18.8 nM and the EC50 (TLR7) was 0.83 nM.

`Cc1cc(-c2[nH]c3sc(C4CCN(CC(N)=O)CC4)c(C)c3c2C(C)C)cn(C)c1=O` [Example 234] was tested, and the EC50 (TLR8) was 10.6 nM and the EC50 (TLR7) was 4.25 nM.

`Cc1cc2ncnn2cc1-c1[nH]c2sc(C3CCN(CC(N)=O)CC3)c(C)c2c1C(C)C` [Example 235] showed an EC50 (TLR8) of 48.8 nM and an EC50 (TLR7) of 10.1 nM.

Work on `Cc1c(C2CCN(CC(N)=O)CC2)sc2[nH]c(-c3cc(C)c4nnnn4c3)c(C(C)C)c12` [Example 236] yielded an EC50 (TLR8) of 21.8 nM and an EC50 (TLR7) of 1.94 nM.

`Cc1c(C2CCN(CC(N)=O)CC2)sc2[nH]c(-c3cc(C)c4nccn4c3)c(C(C)C)c12` [Example 237] was tested, and the EC50 (TLR8) was 69.3 nM and the EC50 (TLR7) was 0.29 nM.

For `COc1cc(-c2[nH]c3sc(C4CCNCC4)c(C)c3c2C(C)C)cn2ncnc12` [Example 246, 4-isopropyl-5-(8-methoxy-[1,2,4]triazolo[1,5-a]pyridin-6-yl)-3-methyl-2-(piperidin-4-yl)-6H-thieno[2,3-b]pyrrole], the EC50 (TLR8) was 8.94 nM and the EC50 (TLR7) was 0.09 nM.

Molecule `Cc1c(C2CCNCC2)sc2[nH]c(-c3ccc(C#N)c4ncccc34)c(C(C)C)c12` [Example 247] has an EC50 (TLR8) of 13.5 nM and an EC50 (TLR7) of 0.2 nM.

With `Cc1c(C2CCNCC2)sc2[nH]c(-c3ccc(C#N)c4nccnc34)c(C(C)C)c12` [Example 248] the EC50 (TLR8) was 106 nM and the EC50 (TLR7) was 11.5 nM.

Work on `Cc1c(C2CCNCC2)sc2[nH]c(-c3cn(C)c4ncccc34)c(C(C)C)c12` [Example 249] yielded an EC50 (TLR8) of 3.02 nM and an EC50 (TLR7) of 0.32 nM.

`Cc1cc(-c2[nH]c3sc(C4CCNCC4)c(C)c3c2C(C)C)cn(C)c1=O` [Example 250] showed an EC50 (TLR8) of 3.59 nM and an EC50 (TLR7) of 0.34 nM.

`Cc1c(C2CCNCC2)sc2[nH]c(-c3cc(C)c4nnnn4c3)c(C(C)C)c12` [Example 251] showed an EC50 (TLR8) of 8.16 nM and an EC50 (TLR7) of 0.13 nM.

Work on `Cc1c(C2CCNCC2)sc2[nH]c(-c3cc(C)c4nccn4c3)c(C(C)C)c12` [Example 252] yielded an EC50 (TLR8) of 34.2 nM and an EC50 (TLR7) of 0.07 nM.

Molecule `Cc1c(-c2[nH]c3sc(C4C[C@@H]5C[C@H]4CC5NC4COC4)c(C)c3c2C(C)C)cn2ncnc2c1C` (stereo partly drawn) [Example 253, N-((1S,4S)-5-(5-(7,8-dimethyl-[1,2,4]triazolo[1,5-a]pyridin-6-yl)-4-isopropyl-3-methyl-6H-thieno[2,3-b]pyrrol-2-yl)bicyclo[2.2.1]heptan-2-yl)oxetan-3-amine] has an EC50 (TLR8) of 1.06 nM and an EC50 (TLR7) of 0.1 nM.

With `Cc1c(-c2[nH]c3sc(C4C[C@@H]5C[C@H]4CC5N4CC5(C4)CS(=O)(=O)C5)c(C)c3c2C(C)C)cn2ncnc2c1C` (some centres unmarked) [Example 254] the EC50 (TLR8) was 3.64 nM and the EC50 (TLR7) was 0.38 nM.

`Cc1c(-c2[nH]c3sc(C4C[C@@H]5C[C@H]4CC5N4CCS(=N)(=O)CC4)c(C)c3c2C(C)C)cn2ncnc2c1C` (some centres unmarked) [Example 255] was tested, and the EC50 (TLR8) was 21.4 nM and the EC50 (TLR7) was 1.22 nM.

Work on `Cc1c(-c2[nH]c3sc(C4C[C@@H]5C[C@H]4CC5N4CCS(=O)(=O)CC4)c(C)c3c2C(C)C)cn2ncnc2c1C` (some centres unmarked) [Example 256] yielded an EC50 (TLR8) of 29.2 nM and an EC50 (TLR7) of 2.31 nM.

Molecule `Cc1c(-c2[nH]c3sc(C4C[C@@H]5C[C@H]4CC5N4CCNC(=O)C4)c(C)c3c2C(C)C)cn2ncnc2c1C` (some centres unmarked) [Example 257] has an EC50 (TLR8) of 7.58 nM and an EC50 (TLR7) of 1.29 nM.

For `Cc1cc(-c2[nH]c3sc(C4CCNCC4)c(CO)c3c2C(C)C)cn2ncnc12` [Example 258, (4-isopropyl-5-(8-methyl-[1,2,4]triazolo[1,5-a]pyridin-6-yl)-2-(piperidin-4-yl)-6H-thieno[2,3-b]pyrrol-3-yl)methanol], the EC50 (TLR8) was 13.6 nM and the EC50 (TLR7) was 0.89 nM.

In the case of `COCc1c(C2CCNCC2)sc2[nH]c(-c3cc(C)c4ncnn4c3)c(C(C)C)c12` [Example 259, 4-isopropyl-3-(methoxymethyl)-5-(8-methyl-[1,2,4]triazolo[1,5-a]pyridin-6-yl)-2-(piperidin-4-yl)-6H-thieno[2,3-b]pyrrole], the EC50 (TLR8) is reported as 3.59 nM and the EC50 (TLR7) is reported as 0.15 nM.

With `Cc1cc(-c2[nH]c3sc(C4CCN(C(=O)[C@H]5COCCN5)CC4)c(CO)c3c2C(C)C)cn2ncnc12` [Example 260, (R)-(4-(3-(hydroxymethyl)-4-isopropyl-5-(8-methyl-[1,2,4]triazolo[1,5-a]pyridin-6-yl)-6H-thieno[2,3-b]pyrrol-2-yl)piperidin-1-yl)(morpholin-3-yl)methanone] the EC50 (TLR8) was 27.3 nM and the EC50 (TLR7) was 0.31 nM.

In the case of `Cc1c(-c2[nH]c3sc([C@@H]4C[C@@H]5C[C@H]4CN5CC(=O)O)c(C)c3c2C(C)C)cn2ncnc2c1C` [Example 264, 2-((1S,4R,5R)-5-(5-(7,8-dimethyl-[1,2,4]triazolo[1,5-a]pyridin-6-yl)-4 isopropyl-3-methyl-6H-thieno[2,3-b]pyrrol-2-yl)-2-azabicyclo[2.2.1]heptan-2-yl)acetic acid], the EC50 (TLR8) is reported as 13.7 nM and the EC50 (TLR7) is reported as 2.52 nM.

`Cc1c(-c2[nH]c3sc([C@@H]4C[C@@H]5C[C@H]4CN5CC(=O)N4CC(O)C4)c(C)c3c2C(C)C)cn2ncnc2c1C` [Example 265, 2-((1S,4R,5R)-5-(5-(7,8-dimethyl-[1,2,4]triazolo[1,5-a]pyridin-6-yl)-4 isopropyl-3-methyl-6H-thieno[2,3-b]pyrrol-2-yl)-2-azabicyclo[2.2.1]heptan-2-yl)-1-(3-hydroxyazetidin-1-yl)ethan-1-one] gave an EC50 (TLR8) of 0.83 nM and an EC50 (TLR7) of 0.97 nM.

Molecule `Cc1c(-c2[nH]c3sc([C@@H]4C[C@@H]5C[C@H]4CN5CC(=O)N(C)CCO)c(C)c3c2C(C)C)cn2ncnc2c1C` [Example 266] has an EC50 (TLR8) of 0.33 nM and an EC50 (TLR7) of 1.27 nM.

`Cc1c(-c2[nH]c3sc([C@@H]4C[C@@H]5C[C@H]4CN5CC(=O)NCCO)c(C)c3c2C(C)C)cn2ncnc2c1C` [Example 267] gave an EC50 (TLR8) of 0.15 nM and an EC50 (TLR7) of 0.47 nM.

`Cc1c(-c2[nH]c3sc(C4C[C@@H]5C[C@H]4CN5CC(=O)N4CCC4)c(C)c3c2C(C)C)cn2ncnc2c1C` (some centres unmarked) [Example 268] showed an EC50 (TLR8) of 0.24 nM and an EC50 (TLR7) of less than 0.05 nM.

`Cc1c(-c2[nH]c3sc([C@@H]4C[C@@H]5C[C@H]4CN5CC(=O)N[C@H]4C[C@@H](O)C4)c(C)c3c2C(C)C)cn2ncnc2c1C` [Example 269] was tested, and the EC50 (TLR8) was 0.28 nM and the EC50 (TLR7) was 0.3 nM.

With `Cc1c(-c2[nH]c3sc([C@@H]4C[C@@H]5C[C@H]4CN5CC(=O)N[C@H]4C[C@H](O)C4)c(C)c3c2C(C)C)cn2ncnc2c1C` [Example 270] the EC50 (TLR8) was 0.59 nM and the EC50 (TLR7) was 0.64 nM.

Work on `Cc1c(-c2[nH]c3sc([C@@H]4C[C@@H]5C[C@H]4CN5CC(=O)NC45CC(O)(C4)C5)c(C)c3c2C(C)C)cn2ncnc2c1C` [Example 271] yielded an EC50 (TLR8) of 0.12 nM and an EC50 (TLR7) of 0.49 nM.

`COCCNC(=O)CN1C[C@@H]2C[C@H]1C[C@H]2c1sc2[nH]c(-c3cn4ncnc4c(C)c3C)c(C(C)C)c2c1C` [Example 272] showed an EC50 (TLR8) of 1.19 nM and an EC50 (TLR7) of 2.13 nM.

`Cc1c(-c2[nH]c3sc([C@@H]4C[C@@H]5C[C@H]4CN5CC(=O)NC[C@@H](F)C(C)(C)O)c(C)c3c2C(C)C)cn2ncnc2c1C` [Example 273] showed an EC50 (TLR8) of 1.01 nM and an EC50 (TLR7) of 1.24 nM.

`Cc1c(-c2[nH]c3sc([C@@H]4C[C@@H]5C[C@H]4CN5CC(=O)NC4COC4)c(C)c3c2C(C)C)cn2ncnc2c1C` [Example 274] showed an EC50 (TLR8) of 1.23 nM and an EC50 (TLR7) of 1.54 nM.

`Cc1c(-c2[nH]c3sc([C@H]4C[C@@H]5C[C@H]4CN5)c(C)c3c2C(C)C)cn2ncnc2c1C` [Example 275, 2-((1S,4R,5S)-2-azabicyclo[2.2.1]heptan-5-yl)-5-(7,8-dimethyl-[1,2,4]triazolo[1,5-a]pyridin-6-yl)-4-isopropyl-3-methyl-6H-thieno[2,3-b]pyrrole] gave an EC50 (TLR8) of 2.91 nM and an EC50 (TLR7) of 0.4 nM.

Molecule `CCc1c(C2CCNCC2)sc2[nH]c(-c3cc(C)c4ncnn4c3)c(C(C)C)c12` [Example 277] has an EC50 (TLR8) of 20.1 nM and an EC50 (TLR7) of 0.06 nM.

`Cc1c(CC2CCNCC2)sc2[nH]c(-c3cc(C)c4ncnn4c3)c(C(C)C)c12` [Example 278] gave an EC50 (TLR8) of 0.8 nM and an EC50 (TLR7) of 0.17 nM.

With `Cc1c(-c2[nH]c3sc(C4CCN(C(=O)[C@H]5CO[C@H](C)CN5)CC4)c(C)c3c2C(C)C)cn2ncnc2c1C` [Example 279, [4-[5-(7,8-dimethyl-[1,2,4]triazolo[1,5-a]pyridin-6-yl)-4-isopropyl-3-methyl-6H-thieno[2,3-b]pyrrol-2-yl]-1-piperidyl]-[(3R,6R)-6-methylmorpholin-3-yl]methanone] the EC50 (TLR8) was 13.6 nM and the EC50 (TLR7) was 0.54 nM.

Molecule `Cc1c(-c2[nH]c3sc(C4CCN(C(=O)[C@H]5CO[C@@H](C)CN5)CC4)c(C)c3c2C(C)C)cn2ncnc2c1C` [Example 280] has an EC50 (TLR8) of 41.2 nM and an EC50 (TLR7) of 1.96 nM.

`Cc1c(-c2[nH]c3sc(C4CCN(C(=O)[C@@H]5NCCO[C@H]5C)CC4)c(C)c3c2C(C)C)cn2ncnc2c1C` [Example 281] was tested, and the EC50 (TLR8) was 13.8 nM and the EC50 (TLR7) was 2.17 nM.

Work on `Cc1c(-c2[nH]c3sc(C4CCN(C(=O)[C@@H]5CC(F)(F)CCN5)CC4)c(C)c3c2C(C)C)cn2ncnc2c1C` [Example 282] yielded an EC50 (TLR8) of 19.5 nM and an EC50 (TLR7) of 1.19 nM.

`Cc1c(-c2[nH]c3sc(C4CCN(C(=O)C5COC(C(F)(F)F)CN5)CC4)c(C)c3c2C(C)C)cn2ncnc2c1C` (centres unmarked) [Example 283] was tested, and the EC50 (TLR8) was 139 nM and the EC50 (TLR7) was 2.65 nM.

`Cc1c(-c2[nH]c3sc(C4CCN(C(=O)[C@H]5C[C@@H](C(F)(F)F)CCN5)CC4)c(C)c3c2C(C)C)cn2ncnc2c1C` [Example 284] was tested, and the EC50 (TLR8) was 4.91 nM and the EC50 (TLR7) was 0.32 nM.

Work on `Cc1c(-c2[nH]c3sc(C4CCN(C(=O)[C@H]5CO[C@@H](C(F)(F)F)CN5)CC4)c(C)c3c2C(C)C)cn2ncnc2c1C` [Example 285] yielded an EC50 (TLR8) of 129 nM and an EC50 (TLR7) of 3.2 nM.

`Cc1c(-c2[nH]c3sc(C4CCN(C5CCCNC5=O)CC4)c(C)c3c2C(C)C)cn2ncnc2c1C` (centres unmarked) [Example 286, 3-[4-[5-(7,8-dimethyl-[1,2,4]triazolo[1,5-a]pyridin-6-yl)-4-isopropyl-3-methyl-6H-thieno[2,3-b]pyrrol-2-yl]-1-piperidyl]piperidin-2-one] was tested, and the EC50 (TLR8) was 9.39 nM and the EC50 (TLR7) was 0.94 nM.

— patent US11661431B2, “Thienopyrrole compounds” (Gilead Sciences, Inc., priority 2021, dated 2023)
